Experimental data as given in EPA's CvTdb concentration-time database.

How the values were obtained:
Assay in all cases: concentration in plasma after dosing
[1] = test system: Rat; settings: dosed: Bromochloroacetic acid, 40 mg/kg, oral, Female, Harlan Sprague Dawley
[2] = test system: Rat; settings: dosed: Bromochloroacetic acid, 40 mg/kg, oral, Female, Harlan Sprague Dawley; remark: listed apart in the source
[3] = test system: Rat; settings: dosed: Bromochloroacetic acid, 40 mg/kg, oral, Female, Harlan Sprague Dawley; remark: listed apart in the source
[4] = test system: Rat; settings: dosed: Bromochloroacetic acid, 10 mg/kg, oral, Male, Harlan Sprague Dawley
[5] = test system: Rat; settings: dosed: Bromochloroacetic acid, 10 mg/kg, oral, Male, Harlan Sprague Dawley; remark: listed apart in the source
[6] = test system: Rat; settings: 0.75 h; dosed: Bromochloroacetic acid; 40 mg/kg; oral; Female; Harlan Sprague Dawley
[7] = test system: Rat; settings: 0.75 h; dosed: Bromochloroacetic acid; 40 mg/kg; oral; Female; Harlan Sprague Dawley; remark: listed apart in the source
[8] = test system: Rat; settings: 0.75 h; dosed: Bromochloroacetic acid; 40 mg/kg; oral; Female; Harlan Sprague Dawley; remark: listed apart in the source
[9] = test system: Rat; settings: 0.25 h; dosed: Bromochloroacetic acid; 10 mg/kg; oral; Male; Harlan Sprague Dawley
[10] = test system: Rat; settings: dosed: Bromochloroacetic acid, 40 mg/kg, oral, Female, Harlan Sprague Dawley; remark: listed apart in the source
[11] = test system: Rat; settings: 5 min; dosed: Bromochloroacetic acid; 40 mg/kg; oral; Female; Harlan Sprague Dawley
[12] = test system: Rat; settings: dosed: Bromochloroacetic acid, 10 mg/kg, oral, Male, Harlan Sprague Dawley; remark: listed apart in the source
[13] = test system: Rat; settings: 0.75 h; dosed: Bromochloroacetic acid; 40 mg/kg; oral; Female; Harlan Sprague Dawley; remark: listed apart in the source
[14] = test system: Rat; settings: dosed: Bromochloroacetic acid, 40 mg/kg, oral, Female, Harlan Sprague Dawley; remark: listed apart in the source
[15] = test system: Rat; settings: dosed: Bromochloroacetic acid, 10 mg/kg, oral, Male, Harlan Sprague Dawley; remark: listed apart in the source
[16] = test system: Rat; settings: 20 min; dosed: Bromochloroacetic acid; 10 mg/kg; oral; Male; Harlan Sprague Dawley
[17] = test system: Rat; settings: dosed: Bromochloroacetic acid, 40 mg/kg, oral, Female, Harlan Sprague Dawley; remark: listed apart in the source
[18] = test system: Rat; settings: dosed: Bromochloroacetic acid, 40 mg/kg, oral, Female, Harlan Sprague Dawley; remark: listed apart in the source
[19] = test system: Rat; settings: dosed: Bromochloroacetic acid, 10 mg/kg, oral, Male, Harlan Sprague Dawley; remark: listed apart in the source
[20] = test system: Rat; settings: dosed: Bromochloroacetic acid, 40 mg/kg, oral, Female, Harlan Sprague Dawley; remark: listed apart in the source
[21] = test system: Rat; settings: dosed: Bromochloroacetic acid, 10 mg/kg, oral, Male, Harlan Sprague Dawley; remark: listed apart in the source
[22] = test system: Rat; settings: dosed: Bromochloroacetic acid, 10 mg/kg, oral, Male, Harlan Sprague Dawley; remark: listed apart in the source
[23] = test system: Rat; settings: dosed: Bromochloroacetic acid, 10 mg/kg, oral, Male, Harlan Sprague Dawley; remark: listed apart in the source
[24] = test system: Rat; settings: dosed: Bromochloroacetic acid, 40 mg/kg, oral, Female, Harlan Sprague Dawley; remark: listed apart in the source
[25] = test system: Rat; settings: dosed: Bromochloroacetic acid, 10 mg/kg, oral, Male, Harlan Sprague Dawley; remark: listed apart in the source
[26] = test system: Rat; settings: dosed: Bromochloroacetic acid, 10 mg/kg, oral, Male, Harlan Sprague Dawley; remark: listed apart in the source
[27] = test system: Rat; settings: dosed: Bromochloroacetic acid, 10 mg/kg, oral, Male, Harlan Sprague Dawley; remark: listed apart in the source
[28] = test system: Rat; settings: 20 min; dosed: Bromochloroacetic acid; 10 mg/kg; oral; Male; Harlan Sprague Dawley; remark: listed apart in the source
[29] = test system: Rat; settings: dosed: Bromochloroacetic acid, 10 mg/kg, oral, Male, Harlan Sprague Dawley; remark: listed apart in the source
[30] = test system: Rat; settings: dosed: Bromochloroacetic acid, 10 mg/kg, oral, Male, Harlan Sprague Dawley; remark: listed apart in the source
[31] = test system: Rat; settings: dosed: Bromochloroacetic acid, 10 mg/kg, oral, Male, Harlan Sprague Dawley; remark: listed apart in the source
[32] = test system: Rat; settings: dosed: Bromochloroacetic acid, 10 mg/kg, oral, Male, Harlan Sprague Dawley; remark: listed apart in the source
[33] = test system: Rat; settings: 0.25 h; dosed: Bromochloroacetic acid; 10 mg/kg; oral; Male; Harlan Sprague Dawley; remark: listed apart in the source
[34] = test system: Rat; settings: dosed: Bromochloroacetic acid, 40 mg/kg, oral, Female, Harlan Sprague Dawley; remark: listed apart in the source
[35] = test system: Rat; settings: 20 min; dosed: Bromochloroacetic acid; 10 mg/kg; oral; Male; Harlan Sprague Dawley; remark: listed apart in the source
[36] = test system: Rat; settings: dosed: Bromochloroacetic acid, oral, Harlan Sprague Dawley
[37] = test system: Rat; settings: 0.75 h; dosed: Bromochloroacetic acid; 40 mg/kg; oral; Female; Harlan Sprague Dawley; remark: listed apart in the source
[38] = test system: Rat; settings: dosed: Bromochloroacetic acid, 40 mg/kg, oral, Female, Harlan Sprague Dawley; remark: listed apart in the source
[39] = test system: Rat; settings: dosed: Bromochloroacetic acid, 10 mg/kg, oral, Male, Harlan Sprague Dawley; remark: listed apart in the source
[40] = test system: Rat; settings: dosed: Bromochloroacetic acid, 40 mg/kg, oral, Female, Harlan Sprague Dawley; remark: listed apart in the source
[41] = test system: Rat; settings: dosed: Bromochloroacetic acid, 40 mg/kg, oral, Female, Harlan Sprague Dawley; remark: listed apart in the source
[42] = test system: Rat; settings: dosed: Bromochloroacetic acid, 40 mg/kg, oral, Female, Harlan Sprague Dawley; remark: listed apart in the source
[43] = test system: Rat; settings: dosed: Bromochloroacetic acid, 10 mg/kg, oral, Male, Harlan Sprague Dawley; remark: listed apart in the source
[44] = test system: Rat; settings: dosed: Bromochloroacetic acid, 10 mg/kg, oral, Male, Harlan Sprague Dawley; remark: listed apart in the source
[45] = test system: Rat; settings: 20 min; dosed: Bromochloroacetic acid; 10 mg/kg; oral; Male; Harlan Sprague Dawley; remark: listed apart in the source
[46] = test system: Rat; settings: dosed: Bromochloroacetic acid, 40 mg/kg, oral, Female, Harlan Sprague Dawley; remark: listed apart in the source
[47] = test system: Rat; settings: 20 min; dosed: Bromochloroacetic acid; 10 mg/kg; oral; Male; Harlan Sprague Dawley; remark: listed apart in the source
[48] = test system: Rat; settings: dosed: Bromochloroacetic acid, 40 mg/kg, oral, Female, Harlan Sprague Dawley; remark: listed apart in the source

O=C(O)C(Cl)Br (stereo not given) [Bromochloroacetic acid]
Settings	concentration in plasma [ng/mL]
[1], 1 h	5710
[1], 2 min	984
[2], 6 h	201
[2], 20 min	5740
[3], 0.25 h	3060
[3], 3 h	1880
[4], 1.5 h	122
[4], 10 min	475
[5], 0.75 h	485
[5], 2 min	216
[10], 2 h	3920
[10], 10 min	2220
[12], 0.75 h	218
[12], 2 min	104
[14], 1.5 h	7410
[14], 5 min	4130
[15], 1 h	164
[15], 5 min	255
[17], 1.5 h	4490
[17], 5 min	2540
[18], 1 h	8650
[18], 2 min	484
[19], 0.75 h	284
[19], 2 min	80.1
[20], 0.25 h	5810
[20], 3 h	2170
[21], 1 h	299
[21], 5 min	383
[22], 1 h	224
[22], 5 min	362
[23], 1.5 h	96.2
[23], 10 min	241
[24], 1.5 h	5290
[24], 5 min	1440
[25], 1.5 h	107
[25], 10 min	494
[26], 1.5 h	238
[26], 10 min	516
[27], 0.25 h	643
[27], 2 h	120
[29], 1 h	201
[29], 5 min	210
[30], 1.5 h	155
[30], 10 min	322
[31], 0.25 h	727
[31], 2 h	136
[32], 0.25 h	545
[32], 3 h	88.7
[34], 4 h	2010
[34], 20 min	3310
[38], 1 h	7500
[38], 2 min	396
[39], 0.75 h	283
[39], 2 min	71.7
[40], 1 h	9330
[40], 2 min	564
[41], 2 h	4710
[41], 10 min	2240
[42], 4 h	1060
[42], 6 h	172
[43], 0.75 h	225
[43], 2 min	104
[44], 1 h	196
[44], 5 min	423
[46], 1 h	7660
[46], 2 min	536
[48], 1.5 h	6540
[48], 5 min	2780

Settings	concentration in plasma [ng/mL]
[6]	10700
[7]	10300
[8]	11800
[9]	476
[11]	2990
[13]	6170
[16]	521
[28]	544
[33]	576
[35]	663
[37]	9710
[45]	508
[47]	733

[36]
Settings	concentration in plasma [ng/mL]
0.25 h, 10 mg/kg, Male	543
0.25 h, 40 mg/kg, Female	5910
0.75 h, 10 mg/kg, Male	177
0.75 h, 40 mg/kg, Female	7630
1 h, 10 mg/kg, Male	187
1 h, 40 mg/kg, Female	6900
1.5 h, 10 mg/kg, Male	166
1.5 h, 40 mg/kg, Female	4860
2 h, 10 mg/kg, Male	95.5
2 h, 40 mg/kg, Female	2940
2 min, 10 mg/kg, Male	83.2
3 h, 40 mg/kg, Female	1990
4 h, 40 mg/kg, Female	3160
5 min, 10 mg/kg, Male	214
5 min, 40 mg/kg, Female	1770
10 min, 10 mg/kg, Male	168
10 min, 40 mg/kg, Female	3420
20 min, 10 mg/kg, Male	364
20 min, 40 mg/kg, Female	4390
